Laboratory results as given in publication PMC6979384, “Characterization of the plant homeodomain (PHD) reader family for their histone tail interactions” (Epigenetics & Chromatin, 2020).

Tests used:
Experiment in all cases: Histone peptide microarray
Format in all cases: binding, human
[1] = tested on: AIRE (PP); conditions: AIRE (PP), GST-tagged; arrays performed twice, n of 4
Description: (§1) To more comprehensively define the histone interactions of the 31 PHD readers identified from the domain microarray analyses, we probed each on an alternate microarray platform containing a library of 293 synthetic histone peptides with single or combinatorial PTMs (Additional file 2: Figure S4 and Additional file 3: Table S2).
(§2) The 31 GST-tagged PHD readers identified in the PHD finger domain array were expressed and purified as previously. Histone peptide arrays and peptide pulldown assays were conducted as recently described (specifically, the optimized protocol from Petell et al. for the former).
(§3) Supplementary file 13072_2020_328_MOESM3_ESM.xlsx: Additional file 3: Table S2. […] Excel Tab Peptide List is a compiled list of the entire 293 histone peptide library with amino acid sequence ranges. […] Each number corresponds to the peptide number designated in Peptide List. Excel Tab Average Signals is a compiled set of binding data: chromatin reader at 0.5 μM vs. entire 293 peptide library. Data is presented as the average and standard deviation of 4 replicates. The average signals are colored to indicate signal intensity with green being strong and white being weak/low. […] Key: red= stronger relative binding; blue = weaker relative binding. Excel Tab Array info summary is a table summarizing the domains, sequence coverage, array signal range, and noise for each of the GST-tagged readers assayed on the peptide microarrays.

[2] = tested on: PHF8; conditions: PHF8, GST-tagged; arrays performed twice, n of 4
Description: as §1, §2, §3

[3] = tested on: ING3; conditions: ING3, GST-tagged; arrays performed twice, n of 4
Description: as §1, §2, §3

[4] = tested on: MORC3 (CW); conditions: MORC3 (CW), GST-tagged; arrays performed twice, n of 4
Description: as §1, §2, §3

[5] = tested on: KDM5A (3); conditions: KDM5A (3), GST-tagged; arrays performed twice, n of 4
Description: as §1, §2, §3

[6] = tested on: PHF2; conditions: PHF2, GST-tagged; arrays performed twice, n of 4
Description: as §1, §2, §3

[7] = tested on: PHF21A; conditions: PHF21A, GST-tagged; arrays performed twice, n of 4
Description: as §1, §2, §3

[8] = tested on: TAF3; conditions: TAF3, GST-tagged; arrays performed twice, n of 4
Description: as §1, §2, §3

[9] = tested on: PHF13; conditions: PHF13, GST-tagged; arrays performed twice, n of 4
Description: as §1, §2, §3

[10] = tested on: KDM5B (3); conditions: KDM5B (3), GST-tagged; arrays performed twice, n of 4
Description: as §1, §2, §3

[11] = tested on: KDM4C (TTP); conditions: KDM4C (TTP), GST-tagged; arrays performed twice, n of 4
Description: as §1, §2, §3

[12] = tested on: TRIM66 (PB); conditions: TRIM66 (PB), GST-tagged; arrays performed twice, n of 4
Description: as §1, §2, §3

[13] = tested on: PHRF1 (RP); conditions: PHRF1 (RP), GST-tagged; arrays performed twice, n of 4
Description: as §1, §2, §3

[14] = tested on: CHD4 (PPCC); conditions: CHD4 (PPCC), GST-tagged; arrays performed twice, n of 4
Description: as §1, §2, §3

[15] = tested on: ING5; conditions: ING5, GST-tagged; arrays performed twice, n of 4
Description: as §1, §2, §3

[16] = tested on: DPF2 (PPC2W2); conditions: DPF2 (PPC2W2), GST-tagged; arrays performed twice, n of 4
Description: as §1, §2, §3

[17] = tested on: BPTF (PB); conditions: BPTF (PB), GST-tagged; arrays performed twice, n of 4
Description: as §1, §2, §3

[18] = tested on: SP140L; conditions: SP140L, GST-tagged; arrays performed twice, n of 4
Description: as §1, §2, §3

[19] = tested on: KDM5A (1); conditions: KDM5A (1), GST-tagged; arrays performed twice, n of 4
Description: as §1, §2, §3

[20] = tested on: CHD5 (PCC); conditions: CHD5 (PCC), GST-tagged; arrays performed twice, n of 4
Description: as §1, §2, §3

[21] = tested on: RAG2; conditions: RAG2, GST-tagged; arrays performed twice, n of 4
Description: as §1, §2, §3

[22] = tested on: KDM7A; conditions: KDM7A, GST-tagged; arrays performed twice, n of 4
Description: as §1, §2, §3

[23] = tested on: CHD5 (PPCC); conditions: CHD5 (PPCC), GST-tagged; arrays performed twice, n of 4
Description: as §1, §2, §3

[24] = tested on: DIDO1; conditions: DIDO1, GST-tagged; arrays performed twice, n of 4
Description: as §1, §2, §3

[25] = tested on: ING2; conditions: ING2, GST-tagged; arrays performed twice, n of 4
Description: as §1, §2, §3

[26] = tested on: BAZ2B; conditions: BAZ2B, GST-tagged; arrays performed twice, n of 4
Description: as §1, §2, §3

[27] = tested on: ING1; conditions: ING1, GST-tagged; arrays performed twice, n of 4
Description: as §1, §2, §3

[28] = tested on: MLL5; conditions: MLL5, GST-tagged; arrays performed twice, n of 4
Description: as §1, §2, §3

[29] = tested on: PHF23; conditions: PHF23, GST-tagged; arrays performed twice, n of 4
Description: as §1, §2, §3

[30] = tested on: ING4; conditions: ING4, GST-tagged; arrays performed twice, n of 4
Description: as §1, §2, §3

H4K16ac + K20ac: H4 1-23
Array Heatmap value (peptide array binding signal) [1]: 0.5176 | Array Heatmap value (peptide array binding signal) [2]: 0.3492 | Array Heatmap value (peptide array binding signal) [3]: 0.4609 | Array Heatmap value (peptide array binding signal) [4]: 0.3738 | Array Heatmap value (peptide array binding signal) [5]: 0.425 | Array Heatmap value (peptide array binding signal) [6]: 0.4717 | Array Heatmap value (peptide array binding signal) [7]: 0.4767 | Array Heatmap value (peptide array binding signal) [8]: 0.2987 | Array Heatmap value (peptide array binding signal) [9]: 0.6126 | Array Heatmap value (peptide array binding signal) [10]: 0.4989 | Array Heatmap value (peptide array binding signal) [11]: 0.4892 | Array Heatmap value (peptide array binding signal) [12]: 0.6284 | Array Heatmap value (peptide array binding signal) [13]: 0.4351 | Array Heatmap value (peptide array binding signal) [14]: 0.5676 | Array Heatmap value (peptide array binding signal) [15]: 0.3611 | Array Heatmap value (peptide array binding signal) [16]: 0.6637 | Array Heatmap value (peptide array binding signal) [17]: 0.3565 | Array Heatmap value (peptide array binding signal) [18]: 0.3563 | Array Heatmap value (peptide array binding signal) [19]: 0.4687 | Array Heatmap value (peptide array binding signal) [20]: 0.7957 | Array Heatmap value (peptide array binding signal) [21]: 0.2369 | Array Heatmap value (peptide array binding signal) [22]: 0.3784 | Array Heatmap value (peptide array binding signal) [23]: 0.5492 | Array Heatmap value (peptide array binding signal) [24]: 0.6429 | Array Heatmap value (peptide array binding signal) [25]: 0.5955 | Array Heatmap value (peptide array binding signal) [26]: 0.4551 | Array Heatmap value (peptide array binding signal) [27]: 0.529 | Array Heatmap value (peptide array binding signal) [28]: 0.5457 | Array Heatmap value (peptide array binding signal) [29]: 0.5182 | Array Heatmap value (peptide array binding signal) [30]: 0.47

H4S1p + K5ac + K8ac + K12ac + K16ac: H4 1-23
Array Heatmap value (peptide array binding signal) [1]: 0.484 | Array Heatmap value (peptide array binding signal) [2]: 0.3922 | Array Heatmap value (peptide array binding signal) [3]: 0.5554 | Array Heatmap value (peptide array binding signal) [4]: 0.4113 | Array Heatmap value (peptide array binding signal) [5]: 0.4753 | Array Heatmap value (peptide array binding signal) [6]: 0.5298 | Array Heatmap value (peptide array binding signal) [7]: 0.5171 | Array Heatmap value (peptide array binding signal) [8]: 0.311 | Array Heatmap value (peptide array binding signal) [9]: 0.677 | Array Heatmap value (peptide array binding signal) [10]: 0.545 | Array Heatmap value (peptide array binding signal) [11]: 0.5634 | Array Heatmap value (peptide array binding signal) [12]: 0.6554 | Array Heatmap value (peptide array binding signal) [13]: 0.5208 | Array Heatmap value (peptide array binding signal) [14]: 0.615 | Array Heatmap value (peptide array binding signal) [15]: 0.4228 | Array Heatmap value (peptide array binding signal) [16]: 0.7325 | Array Heatmap value (peptide array binding signal) [17]: 0.3984 | Array Heatmap value (peptide array binding signal) [18]: 0.3938 | Array Heatmap value (peptide array binding signal) [19]: 0.5302 | Array Heatmap value (peptide array binding signal) [20]: 0.835 | Array Heatmap value (peptide array binding signal) [21]: 0.2856 | Array Heatmap value (peptide array binding signal) [22]: 0.3878 | Array Heatmap value (peptide array binding signal) [23]: 0.6446 | Array Heatmap value (peptide array binding signal) [24]: 0.7637 | Array Heatmap value (peptide array binding signal) [25]: 0.6187 | Array Heatmap value (peptide array binding signal) [26]: 0.5342 | Array Heatmap value (peptide array binding signal) [27]: 0.5918 | Array Heatmap value (peptide array binding signal) [28]: 0.5849 | Array Heatmap value (peptide array binding signal) [29]: 0.5865 | Array Heatmap value (peptide array binding signal) [30]: 0.5155
